Test results published in patent publication US20260070917A1, “CYCLIN DEPENDENT KINASE DEGRADERS AND METHODS OF USE THEREOF” (Differentiated Therapeutics Inc, priority 2023, published 2026).

How the values were obtained:
Assay type in all cases: cell-based
[1] = target: T1, CDK2 (Homo sapiens, UniProt P24941); experiment: HiBit Assay Protocol for CDK2 (HIBIT protein quantification, degradation); settings: HEK293-CDK2-Hibit cells, compound treatment for 6 hours; for DC50: ABS DC50
T1 construct: host or cells: HEK293-CDK2-Hibit
Summary of the method: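 DC50 comes from a fitted curve of remaining CDK2-HiBiT luminescence, referenced to DMSO-treated cells and medium-only wells. HEK293-CDK2-HiBiT cells, plated the previous night, received compounds in a 10-point, 3-fold series for 6 h before lysis with LgBiT-containing Nano-Glo HiBiT reagent.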

[2] = target: T2, CCNE1 (Homo sapiens, UniProt P24864); experiment: HiBit Assay Protocol for CCNE1 (HIBIT protein quantification, degradation); settings: HEK293-CCNE1-Hibit cells, compound treatment for 6 hours
T2 construct: host or cells: HEK293-CCNE1-Hibit
T2 sequence (P24864 whole entry): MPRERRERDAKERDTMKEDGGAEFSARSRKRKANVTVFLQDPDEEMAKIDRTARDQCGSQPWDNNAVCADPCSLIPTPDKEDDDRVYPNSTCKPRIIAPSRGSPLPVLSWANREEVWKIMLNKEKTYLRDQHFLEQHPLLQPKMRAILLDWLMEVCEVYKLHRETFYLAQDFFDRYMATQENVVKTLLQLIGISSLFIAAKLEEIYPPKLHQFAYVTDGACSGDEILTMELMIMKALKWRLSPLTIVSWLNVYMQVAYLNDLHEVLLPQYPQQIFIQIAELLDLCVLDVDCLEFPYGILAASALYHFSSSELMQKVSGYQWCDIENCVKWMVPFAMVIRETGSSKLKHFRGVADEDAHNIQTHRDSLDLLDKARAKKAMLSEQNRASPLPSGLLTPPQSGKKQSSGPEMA
Summary of the method: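 Degradation readout: lytic Nano-Glo HiBiT luminescence after 6 h exposure of HEK293-CCNE1-HiBiT cells to 10-point, 3-fold serial dilutions. Signal was scaled between medium-only and DMSO-treated wells, and DC50 came from curve fits.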

[3] = target: T3, CDK9 (Homo sapiens, UniProt P50750); experiment: HiBit Assay Protocol for CDK9 (HIBIT protein quantification, degradation); settings: HEK293-CDK9-Hibit cells, compound treatment for 6 hours; for Dmax: 6 h, read-out: CDK9 HIBIT Protein Quantification Maximum
T3 construct: host or cells: HEK293-CDK9-Hibit
T3 sequence (P50750 whole entry): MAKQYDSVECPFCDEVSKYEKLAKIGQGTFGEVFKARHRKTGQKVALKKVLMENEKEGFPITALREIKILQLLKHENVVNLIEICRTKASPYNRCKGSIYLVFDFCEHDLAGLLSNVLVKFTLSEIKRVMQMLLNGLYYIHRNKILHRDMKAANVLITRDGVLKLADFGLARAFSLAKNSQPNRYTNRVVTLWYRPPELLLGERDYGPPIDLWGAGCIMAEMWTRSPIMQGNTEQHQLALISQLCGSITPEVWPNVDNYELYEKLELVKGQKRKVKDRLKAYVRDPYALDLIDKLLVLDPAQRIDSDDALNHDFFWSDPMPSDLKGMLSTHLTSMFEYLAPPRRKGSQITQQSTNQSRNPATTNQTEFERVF
Summary of the method: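 Degradation read-out: luminescence after lytic HiBiT/LgBiT detection in HEK293-CDK9-HiBiT cells exposed 6 h to 10-point, 3-fold compound dilutions. Signal scaled between 0.1% DMSO-treated cells and medium alone; DC50 fitted from the curve.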

Compound	CDK2 HIBIT Protein Quantification Maximum [1] [%]	CCNE1 HIBIT Protein Quantification Maximum [2] [%]	Dmax [3] [%]	DC50 ([3]; ABS DC50) [nM]	DC50 [1] [nM]
Cc1ccc(CN2CCC(c3ccc4c(N5CCC(=O)NC5=O)nn(C)c4c3)CC2)cc1S(=O)(=O)N1CCC(Nc2ncc3c(n2)N([C@@H]2CCC[C@@H](O)C2)C(=O)C32CC2)CC1 [Compound 163, 1-[6-(1-{[3-(4-{7′-[(1R,3R)-3-Hydroxycyclohexyl]-6′-oxospiro [cyclopropane-1,5′-pyrrolo[2,3-d]pyrimidin]-2′-ylamino}piperidin-1-ylsulfonyl)-4-methylphenyl]methyl}piperidin-4-yl)-1-methylindazol-3-yl]-1,3-diazinane-2,4-dione]	26	38	51	25.3	–
Cn1nc(N2CCC(=O)NC2=O)c2ccc(C3CCN(Cc4ccnc(S(=O)(=O)N5CCC(Nc6ncc7c(n6)N([C@@H]6CCC[C@@H](O)C6)C(=O)C76CC6)CC5)c4)CC3)cc21 [Compound 165, 1-[6-(1-{[2-(4-{7′-[(1R,3R)-3-Hydroxycyclohexyl]-6′-oxospiro[cyclopropane-1,5′-pyrrolo[2,3-d]pyrimidin]-2′-ylamino}piperidin-1-ylsulfonyl)pyridin-4-yl]methyl}piperidin-4-yl)-1-methylindazol-3-yl]-1,3-diazinane-2,4-dione]	78	44	13	–	10.1
Cn1nc(N2CCC(=O)NC2=O)c2ccc(C3CCN(Cc4cccc(S(=O)(=O)N5CCC(Nc6ncc7c(n6)N([C@@H]6CCC[C@@H](O)C6)C(=O)C76CC6)CC5)n4)CC3)cc21 [Compound 166, 1-[6-(1-{[6-(4-{7′-[(1R,3R)-3-Hydroxycyclohexyl]-6′-oxospiro[cyclopropane-1,5′-pyrrolo[2,3-d]pyrimidin]-2′-ylamino}piperidin-1-ylsulfonyl)pyridin-2-yl]methyl}piperidin-4-yl)-1-methylindazol-3-yl]-1,3-diazinane-2,4-dione]	64	44	18	–	21.3
Cc1cc(CN2CCC(c3ccc4c(N5CCC(=O)NC5=O)nn(C)c4c3)CC2)cc(S(=O)(=O)N2CCC(Nc3ncc4c(n3)N([C@@H]3CCC[C@@H](O)C3)C(=O)C43CC3)CC2)c1 [Compound 167, 1-[6-(1-{[3-(4-{7′-[(1R,3R)-3-Hydroxycyclohexyl]-6′-oxospiro[cyclopropane-1,5′-pyrrolo[2,3-d]pyrimidin]-2′-ylamino}piperidin-1-ylsulfonyl)-5-methylphenyl]methyl}piperidin-4-yl)-1-methylindazol-3-yl]-1,3-diazinane-2,4-dione]	70	32	15	–	3.77
Cc1ccc(S(=O)(=O)N2CCC(Nc3ncc4c(n3)N([C@@H]3CCC[C@@H](O)C3)C(=O)C43CC3)CC2)cc1CN1CCC(c2ccc3c(N4CCC(=O)NC4=O)nn(C)c3c2)CC1 [Compound 168]	71	40	26	–	2.91
Cn1nc(N2CCC(=O)NC2=O)c2ccc(C3CCN(Cc4cc(S(=O)(=O)N5CCC(Nc6ncc7c(n6)N([C@@H]6CCC[C@@H](O)C6)C(=O)C76CC6)CC5)ccc4F)CC3)cc21 [Compound 169, 1-[6-(1-{[2-Fluoro-5-(4-{7′-[(1R,3R)-3-hydroxycyclohexyl]-6′-oxospiro[cyclopropane-1,5′-pyrrolo[2,3-d]pyrimidin]-2′-ylamino}piperidin-1-ylsulfonyl)phenyl]methyl}piperidin-4-yl)-1-methylindazol-3-yl]-1,3-diazinane-2,4-dione]	84	47	10	–	5.85
